Assay results as given in patent US10934310B2, “Inhibitors of Bruton's tyrosine kinase and method of their use” (JANSSEN PHARMACEUTICA NV, priority 2015, dated 2021).

Each compound was assayed against unphosphorylated-BTK kinase domain (UP-BTK), GST-tagged human BTK (389-659aa) (Homo sapiens (Human), UniProt Q06187) (assay: BTK Kinase Lanthascreen Binding Assay). Conditions: Lanthascreen binding, 60 minutes incubation; pIC50 = negative log of the IC50 in molar.
Experimental: BTK Kinase Lanthascreen Binding Assay:
A BTK kinase lanthascreen binding assay monitors compound binding to unphosphorylated-BTK kinase domain (UP-BTK), by competing with a fluorescent labeled tracer. […] Data were analyzed using Xlfit™ version 5.3 from ID Business Solutions (Guildford), Microsoft Excel add-in. pIC50 refers to the negative log of the IC50 in molar.

Sequence of unphosphorylated-BTK kinase domain (UP-BTK), GST-tagged human BTK (389-659aa) (Q06187 389-659): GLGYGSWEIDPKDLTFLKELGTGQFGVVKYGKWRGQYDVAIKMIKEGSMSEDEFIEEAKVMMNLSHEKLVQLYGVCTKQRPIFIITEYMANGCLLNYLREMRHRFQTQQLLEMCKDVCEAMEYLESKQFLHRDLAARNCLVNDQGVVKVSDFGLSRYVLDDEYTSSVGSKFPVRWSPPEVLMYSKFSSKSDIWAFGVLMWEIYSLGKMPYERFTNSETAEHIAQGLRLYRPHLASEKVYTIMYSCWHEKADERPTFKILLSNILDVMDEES

| BTK_I_binding pIC50 | Structure (SMILES) |
| --- | --- |
| 7.33 | C=CC(=O)N[C@@H]1CCC[C@H]1NC(=O)c1sc2nccc3c2c1NC(=O)N3c1ccc(OC(C)C)cc1C (single isomer, unassigned) [Example 316, N-((1R,2R)-2-Acrylamidocyclopentyl)-5-(*S)-(4-isopropoxy-2-methylphenyl)-4-oxo-4,5-dihydro-3H-1-thia-3,5,8-triazaacenaphthylene-2-carboxamide] |
| 8.07 | C=CC(=O)N[C@H]1CC[C@@H](NC(=O)c2sc3nccc4c3c2NC(=O)N4c2cnc(OC3CCCC3)cc2C)C1 (single isomer, unassigned) [Example 366, N-((1R,3S)-3-Acrylamidocyclopentyl)-5-(*S)-(6-(cyclopentyloxy)-4-methylpyridin-3-yl)-4-oxo-4,5-dihydro-3H-1-thia-3,5,8-triazaacenaphthylene-2-carboxamide] |
| 6.26 | CC(=O)N[C@H]1CCCC[C@H]1NC(=O)c1sc2nccc3c2c1NC(=O)N3c1ccc(Oc2ccccc2)nc1C (single isomer, unassigned) [Example 340, N-((1R,2S)-2-Acetamidocyclohexyl)-5-(*S)-(2-methyl-6-phenoxypyridin-3-yl)-4-oxo-4,5-dihydro-3H-1-thia-3,5,8-triazaacenaphthylene-2-carboxamide] |
| 6.61 | Cc1cc(Oc2ccccc2)ncc1N1C(=O)Nc2c(C(=O)N[C@@H]3CC[C@H](N)C3)sc3nccc1c23 (single isomer, unassigned) [Example 355, N-((1R,3S)-3-Aminocyclopentyl)-5-(*S)-(4-methyl-6-phenoxypyridin-3-yl)-4-oxo-4,5-dihydro-3H-1-thia-3,5,8-triazaacenaphthylene-2-carboxamide] |
| 6.66 | C=CC(=O)N[C@@H]1CCC[C@@H](NC(=O)c2sc3nccc4c3c2NC(=O)N4c2ccc(Oc3ccccc3)nc2)C1 (single isomer, unassigned) [Example 331, N-((1*R,3*R)-3-Acrylamidocyclohexyl)-4-oxo-5-(6-phenoxypyridin-3-yl)-4,5-dihydro-3H-1-thia-3,5,8-triazaacenaphthylene-2-carboxamide] |
| 7.79 | C=CC(=O)N[C@H]1CCC[C@H]1NC(=O)c1sc2nccc3c2c1NC(=O)N3c1ccc(Oc2cncnc2)cc1C [Example 482, N-((1R,2S)-2-Acrylamidocyclopentyl)-5-(2-methyl-4-(pyrimidin-5-yloxy)phenyl)-4-oxo-4,5-dihydro-3H-1-thia-3,5,8-triazaacenaphthylene-2-carboxamide] |
| 6.46 | Cc1nc(Oc2ccccc2)ccc1N1C(=O)Nc2c(C(=O)N[C@@H]3CCC[C@@H]3N)sc3nccc1c23 (single isomer, unassigned) [Example 318, N-((1*R,2*S)-2-Aminocyclopentyl)-5-(*S)-(2-methyl-6-phenoxypyridin-3-yl)-4-oxo-4,5-dihydro-3H-1-thia-3,5,8-triazaacenaphthylene-2-carboxamide] |
| 5.81 | N[C@@H]1CCCC[C@@H]1NC(=O)c1sc2nccc3c2c1NC(=O)N3c1ccc(Oc2ccccc2)cc1 [Example 457, N-((1S,2R)-2-Aminocyclohexyl)-4-oxo-5-(4-phenoxyphenyl)-4,5-dihydro-3H-1-thia-3,5,8-triazaacenaphthylene-2-carboxamide] |
| 6.06 | C=CC(=O)N[C@H]1CCC[C@H]1NC(=O)c1sc2nccc3c2c1NC(=O)N3c1ccc(OC2CCOCC2)cc1C (single isomer, unassigned) [Example 347, N-((1R,2S)-2-Acrylamidocyclopentyl)-5-(*R)-(2-methyl-4-((tetrahydro-2H-pyran-4-yl)oxy)phenyl)-4-oxo-4,5-dihydro-3H-1-thia-3,5,8-triazaacenaphthylene-2-carboxamide] |
| 6.50 | Cc1nc(Oc2ccccc2)ccc1N1C(=O)Nc2c(C(=O)N[C@@H]3CCCC[C@@H]3N)sc3nccc1c23 (single isomer, unassigned) [Example 333, N-((1R,2S)-2-Aminocyclohexyl)-5-(*S)-(2-methyl-6-phenoxypyridin-3-yl)-4-oxo-4,5-dihydro-3H-1-thia-3,5,8-triazaacenaphthylene-2-carboxamide] |

Same assay, conditions: compound, 50 nM Tracer 236, 2 nM anti-GST antibody, 60 minutes; pIC50 = negative log of the IC50 in molar

| BTK_I_binding pIC50 | Structure (SMILES) |
| --- | --- |
| 6.56 | C=CC(=O)N[C@H]1CCC[C@H](NC(=O)c2sc3nccc4c3c2NC(=O)N4c2ccc(Oc3ccccc3)cc2C)C1 (single isomer, unassigned) [Example 231, N-((1S,3S)-3-Acrylamidocyclohexyl)-5-(*S)-(2-methyl-4-phenoxyphenyl)-4-oxo-4,5-dihydro-3H-1-thia-3,5,8-triazaacenaphthylene-2-carboxamide] |
| 7.12 | C=CC(=O)N[C@H]1CC[C@@H](NC(=O)c2sc3nccc4c3c2NC(=O)N4c2ccc(Oc3ccccc3)cc2C)C1 (single isomer, unassigned) [Example 196, N-((1R,3S)-3-Acrylamidocyclopentyl)-5-(*S)-(2-methyl-4-phenoxyphenyl)-4-oxo-4,5-dihydro-3H-1-thia-3,5,8-triazaacenaphthylene-2-carboxamide] |
| 8.02 | C=CC(=O)N[C@H]1CCCC[C@H]1NC(=O)c1sc2nccc3c2c1NC(=O)N3c1cnc(Oc2ccccc2)cc1C (single isomer, unassigned) [Example 173, N-((1R,2S)-2-Acrylamidocyclohexyl)-5-(*S)-(4-methyl-6-phenoxypyridin-3-yl)-4-oxo-4,5-dihydro-3H-1-thia-3,5,8-triazaacenaphthylene-2-carboxamide] |
| 6.56 | Cc1cc(Oc2ccccc2)ccc1N1C(=O)Nc2c(C(=O)N[C@H]3CC[C@@H](N(C)C)CC3)sc3nccc1c23 [Example 66, N-((1S,4S)-4-(Dimethylamino)cyclohexyl)-5-(2-methyl-4-phenoxyphenyl)-4-oxo-4,5-dihydro-3H-1-thia-3,5,8-triazaacenaphthylene-2-carboxamide] |
| 6.24 | CCC(=O)N[C@@H]1CCCC[C@@H]1NC(=O)c1sc2nccc3c2c1NC(=O)N3c1ccc(Oc2ccccc2)cc1C [Example 42, 5-(2-Methyl-4-phenoxyphenyl)-4-oxo-N-((1S,2R)-2-propionamidocyclohexyl)-4,5-dihydro-3H-1-thia-3,5,8-triazaacenaphthylene-2-carboxamide] |
| 6.69 | CCC(=O)N[C@@H]1CCC[C@H]1NC(=O)c1sc2nccc3c2c1NC(=O)N3c1ccc(Oc2ccccc2)cc1C [Example 26, 5-(2-Methyl-4-phenoxyphenyl)-4-oxo-N-((1R,2R)-2-propionamidocyclopentyl)-4,5-dihydro-3H-1-thia-3,5,8-triazaacenaphthylene-2-carboxamide] |
| 6.01 | Cc1cc(Oc2ccccc2)ccc1N1C(=O)Nc2c(C(=O)N[C@H]3CCC[C@H]3N(C)C)sc3nccc1c23 [Example 51, N-((1S,2R)-2-(Dimethylamino)cyclopentyl)-5-(2-methyl-4-phenoxyphenyl)-4-oxo-4,5-dihydro-3H-1-thia-3,5,8-triazaacenaphthylene-2-carboxamide] |
| 8.28 | C=CC(=O)N[C@H]1CCC[C@H]1NC(=O)c1sc2nccc3c2c1NC(=O)N3c1ccc(Oc2ccccc2)nc1 [Example 178, N-((1R,2S)-2-Acrylamidocyclopentyl)-4-oxo-5-(6-phenoxypyridin-3-yl)-4,5-dihydro-3H-1-thia-3,5,8-triazaacenaphthylene-2-carboxamide] |
| 6.56 | C=CC(=O)N[C@@H]1CCC[C@@H]1NC(=O)c1sc2nccc3c2c1NC(=O)N3c1ccc(Oc2ccccc2)cc1 [Example 127, N-((1S,2R)-2-Acrylamidocyclopentyl)-4-oxo-5-(4-phenoxyphenyl)-4,5-dihydro-3H-1-thia-3,5,8-triazaacenaphthylene-2-carboxamide] |

| Structure (SMILES) | BTK_I_binding pIC50 |
| --- | --- |
| Cc1cc(Oc2ccccc2)ccc1N1C(=O)Nc2c(C(=O)N[C@H]3CC[C@H](O)CC3)sc3nccc1c23 [Example 15, N-((1R,4R)-4-Hydroxycyclohexyl)-5-(2-methyl-4-phenoxyphenyl)-4-oxo-4,5-dihydro-3H-1-thia-3,5,8-triazaacenaphthylene-2-carboxamide] | 7.21 |

Same assay, conditions: read-out: BTK_I_binding pIC50 (converted)

| IC50 [nM] | Structure (SMILES) |
| --- | --- |
| 15.8 | C=CC(=O)N[C@@H]1CC[C@H](NC(=O)c2sc3nccc4c3c2NC(=O)N4c2ccc(Oc3ccccc3)cc2)C1 [Example 117, N-((1S,3R)-3-Acrylamidocyclopentyl)-4-oxo-5-(4-phenoxyphenyl)-4,5-dihydro-3H-1-thia-3,5,8-triazaacenaphthylene-2-carboxamide] |
| > 1000 | C=CC(=O)N[C@@H]1CCC[C@H](NC(=O)c2sc3nccc4c3c2NC(=O)N4c2ccnc(-c3ccccc3)c2)C1 [Example 351, N-((1S,3R)-3-Acrylamidocyclohexyl)-4-oxo-5-(2-phenylpyridin-4-yl)-4,5-dihydro-3H-1-thia-3,5,8-triazaacenaphthylene-2-carboxamide] |
| > 1000 | Cc1cc(OC2CCOCC2)ccc1N1C(=O)Nc2c(C(=O)N[C@@H]3CCC[C@@H]3N)sc3nccc1c23 [Example 287, N-((1R,2S)-2-Aminocyclopentyl)-5-(2-methyl-4-((tetrahydro-2H-pyran-4-yl)oxy)phenyl)-4-oxo-4,5-dihydro-3H-1-thia-3,5,8-triazaacenaphthylene-2-carboxamide] |
| > 1000 | C=CC(=O)N[C@H]1CCCC[C@@H]1NC(=O)c1sc2nccc3c2c1NC(=O)N3c1ccc(OC(C)C)cc1C (single isomer, unassigned) [Example 272, N-((1S,2S)-2-Acrylamidocyclohexyl)-5-(*R)-(4-isopropoxy-2-methylphenyl)-4-oxo-4,5-dihydro-3H-1-thia-3,5,8-triazaacenaphthylene-2-carboxamide] |
| 229 | Cc1cc(CC(C)C)ncc1N1C(=O)Nc2c(C(=O)N[C@@H]3CCC[C@@H]3NC(=O)/C=C/CNC(=O)CCCC(=O)NCCCOCCOCCOCCCNC(=O)CCCC[C@@H]3SC[C@@H]4NC(=O)N[C@@H]43)sc3nccc1c23 (single isomer, unassigned) [Example 464] |
